Patent US8968663B2, “Monitoring membrane-bound proteins” (University of Utah Research Foundation, priority 2011, dated 2015)

Legend:
[1] = tested on: ShakerB-IR K^+ ion channel; conditions: extracellular application; stated as known; cited from earlier work
[2] = tested on: control oocytes (endogenous protein response); assay: RF (500 kHz) impedance interrogation of control Xenopus oocytes under voltage clamp; type: cell-based; conditions: ~120 μM Cu^2+, 500 kHz RF signal, FIG. 10
Excerpt: (§1) Oocytes were positioned into a recording chamber consisting of an RF belt electrode surrounding the meridian of the cell and a ground electrode located in the oocyte media above an axial pole of the cell. Two glass micropipettes (1-3 MΩ access resistance) filled with 3M KCL were carefully guided into the oocyte using an upright microscope (Zeiss AxioTech). One micropipette was attached to a voltage-measuring headstage (HS-2Ax1 LU, Molecular Devices, Sunnyvale, Calif.) and the second micropipette was attached to a current-injecting headstage (HS-2Ax10MGU, Molecular Devices, Sunnyvale, Calif.). […]
(§2) RF voltage measurements were sampled through a head-stage voltage-follower operational amplifier (OPA356, Texas Instruments, Dallas, Tex.). The RF signal was high pass filtered (100 kHz, 48 DB/oct Bessel HPF; SIM965, Stanford Research Systems, Sunnyvale, Calif.) and detected by a lock-in amplification (0 integration time, SR844, Stanford Research Systems, Sunnyvale, Calif.). The quadrature outputs on the lock-in amplifier detected changes on the order of 10 microvolts, and time delays caused by the lock-in amplifier and HPF were accounted for prior to data analysis. TEVC data (command voltage, sensed voltage, measured current) and RF data (quadrature outputs from the lock-in amplifier) were sampled every 20 μs using a 16 bit A-D converter (ITC-18, HEKA Inst. Bellmore, N.Y.). […]

[3] = tested on: ShakerB-IR K^+ ion channel; assay: RF (500 kHz) impedance interrogation of ShakerB-IR expressing Xenopus oocytes under voltage clamp; type: cell-based; conditions: ~120 μM Cu^2+, 500 kHz RF signal, FIG. 10
Protocol: Complementary deoxyribonucleic acid (cDNA) for the Shaker ion-channel variant ShakerB-IR (inactivation removed) was transformed in E. coli and linearized using the restriction enzyme, Kpn-1. cRNA was transcribed from linearized DNA, and 32 nL/cell of the transcribed RNA was injected into Xenopus oocytes. Recordings were done 24-48 hours after injection to allow time for protein expression. Currents were measured using two-microelectrode voltage clamp to verify ShakerB-IR ion channel expression. […]
as §2

[4] = tested on: ShakerB-IR K^+ ion channel; assay: Two-electrode voltage clamp of ShakerB-IR expressing Xenopus oocytes with Cu^2+ applied as ion channel blocker; type: cell-based; conditions: ~120 μM Cu^2+ pipetted above the cell, FIG. 10
Protocol: Complementary deoxyribonucleic acid (cDNA) for the Shaker ion-channel variant ShakerB-IR (inactivation removed) was transformed in E. coli and linearized using the restriction enzyme, Kpn-1. cRNA was transcribed from linearized DNA, and 32 nL/cell of the transcribed RNA was injected into Xenopus oocytes. Recordings were done 24-48 hours after injection to allow time for protein expression. Currents were measured using two-microelectrode voltage clamp to verify ShakerB-IR ion channel expression. Oocytes were stored in Superbarths Oocyte media (88 mM NaCl, 1 mM KCl, 0.41 mM CaCl2, 0.33 mM Ca(NO3)2, 1 mM MgSO4, 2.4 mM NaHCO3, 10 mM HEPES, 1 mM pyruvate and 50 μg/ml gentamicin, titrated using NaOH to a pH of 7.4) at 17° Celsius (C.). Oocytes were also bathed in this media during RF recording.
as §1

Which “known effect of extracellular Cu^2+ on K^+ conductance” value [1] does the source give for `[Cu+2]` [Cu^2+] here?
Its value is “shift the K^+ conductance to more depolarized levels”.

And the “effect on charge displacement within the RF electric field in control cells” value [2]?
Its value is “not observed to the same extent in control cells”.

And the “effect on charge displacement within the RF electric field (voltage-dependent RF impedance)” value [3]?
The value was “increased charge displacement within the RF electric field”.

And the “effect on ShakerB-IR K^+ current” value [4]?
The value was “blocked the ShakerB-IR K^+ current”.
